Usually solubility stands for the concentration that dissolves in the medium under given conditions. High values mean a readily soluble substance, low ones a poorly soluble substance. In general, efflux ratio refers to the permeability from basolateral to apical divided by that in the opposite direction, in the common usage. What is called Papp A→B is how fast a substance crosses the layer from the apical side. What is called Papp B→A is how fast a substance crosses the layer from the basolateral side. What is called IC50 is the point on the concentration scale where inhibition reaches its midpoint. As usually defined, the AUC(0-inf) is the area under the concentration-time curve extrapolated to infinity. A lower AUC(0-inf) goes with low exposure. By clearance is commonly meant the rate of elimination divided by the concentration. Read a high clearance as efficient removal. What is called half-life is the time in which the quantity being followed falls by half. A lower half-life goes with fast loss. What is called Cmax is the highest concentration seen after dosing. By Tmax is commonly meant the time at which the peak concentration occurs.

The values below come from US12612392B2, “Compound, pharmaceutical compositions containing same, synthesis method therefor and use thereof” (SHENZHEN ZHONGGE BIOLOGICAL TECHNOLOGY CO., LTD., priority 2022, dated 2026).

The nature of data set [1]: Kinetic solubility evaluation. In kind it is physicochemical. Conditions: kinetic from dmso stock, 37° C. The method, then: The test compounds were dissolved in DMSO to prepare 10 mM stock solutions. 8.71 g of K2HPO4 was added to 500 mL of deionized water to prepare a 100 mM K2HPO4 solution. 2.05 g of potassium dihydrogen phosphate was added to 150 ml of deionized water to prepare a 100 mM potassium dihydrogen phosphate solution. 405 mL of 100 mM K2HPO4 and 95 mL of 100 mM KH2PO4 were mixed, and the mixed solution was adjusted to pH 7.4 by a 100 mM K2HPO4/KH2PO4 solution. 10.41 g of FaSSIF buffer concentrate was added to 240.3 g of deionized water to prepare a buffer solution (fasted-state simulated intestinal fluid, pH=6.5). 4.071 g of FeSSIF buffer concentrate was added to 45.97 g of deionized water to prepare a buffer solution (fed-state simulated intestinal fluid, pH=5.0).
[…] (for PBS) or 37° C. (for others). After the incubation, the solution was transferred to a filter plate. All samples were filtered. 5 μL of the filtrate was added to 5 μL of DMSO, and 490 μl of an aqueous acetonitrile solution containing the internal standard (1:1), and the mixture was mixed evenly. Based on the properties of the compound and its response in mass spectrometry, dilution with an aqueous acetonitrile solution containing the internal standard (1:1) was performed. The dilution factor was varied according to the solubility value and UPLC-MS/MS signal response.

Data set [2] in a line: Cell membrane permeability (A to B / B to A, efflux ratio). In kind it is in vitro ADME. As to the method:
The test compounds were diluted from 10 mM stock solutions to a concentration of 10 μM using the transport buffer (HBSS+BSA) and applied to the apical or basolateral side of the cell monolayer. After the incubation at 37° C., 5% CO2 and 95% relative humidity for 120 minutes, the permeability of the test compounds in the A to B direction or the B to A direction was tested in duplicate. In addition, the efflux ratio of each compound was determined. The test substances and reference substances were quantitatively analyzed by the LC-MS/MS method based on the analyte/IS peak area ratio.

The next data set has as its target T1, CYP1A2 (Homo sapiens, UniProt P05177).
T1 construct: A phosphate buffer solution of liver microsomes was prepared; from tissue; host or cells: human liver microsomes
T1 sequence (P05177 1-516): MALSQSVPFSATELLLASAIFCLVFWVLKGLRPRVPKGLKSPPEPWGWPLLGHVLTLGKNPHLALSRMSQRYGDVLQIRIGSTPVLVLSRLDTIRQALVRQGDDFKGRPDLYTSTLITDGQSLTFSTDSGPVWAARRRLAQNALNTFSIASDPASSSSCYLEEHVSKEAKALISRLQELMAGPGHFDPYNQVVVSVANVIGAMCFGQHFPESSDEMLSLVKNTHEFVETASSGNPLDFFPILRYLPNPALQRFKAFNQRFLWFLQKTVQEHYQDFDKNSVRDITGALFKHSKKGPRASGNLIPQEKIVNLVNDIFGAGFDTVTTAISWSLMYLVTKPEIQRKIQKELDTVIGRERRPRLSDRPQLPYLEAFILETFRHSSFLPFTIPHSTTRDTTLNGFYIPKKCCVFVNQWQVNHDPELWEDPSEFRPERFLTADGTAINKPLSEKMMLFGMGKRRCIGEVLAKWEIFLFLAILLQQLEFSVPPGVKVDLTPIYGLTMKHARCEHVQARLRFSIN
Nature of the data set: P450 enzyme inhibition, CYP1A2. In kind it is in vitro ADME. To be noted: human liver microsome, substrate Phenacetin. As to the method:
(§1) A phosphate buffer solution of liver microsomes was prepared. 169 μL of the phosphate buffer solution of liver microsomes and 1 μL of working solutions of various concentrations of test compounds or positive control compounds were added to a 96-well plate. The culture plate was placed in a water bath and pre-heated at 37° C. for 15 minutes. After the incubation, 10 μL of substrates were added to the culture plate (1 μL of substrates and 9 μL of the K-Mg buffer solution were added to the plate for CYP3A4-T). The incubation mixture was mixed on a rotating mixer for 10 seconds, and then 20 μL of a 10 mM NADPH solution was added to start the reaction at a final concentration of 1 mM. The experiment was repeated twice. At the predetermined time points listed in Table 4, the reaction was quenched by adding 400 μL of the quenching solution (cold ACN containing 500 nM mephetedrine and 10 nM terfenadine). Centrifugation was performed at 3220 g for 50 minutes at 4° C. 100 μl of the supernatant was transferred to a new plate. The supernatant was diluted with 100 μL of pure water. The mixture was mixed evenly, and the sample was analyzed by UPLC-MS/MS.

In the next data set the target is T2, CYP2C9 (Homo sapiens, UniProt P11712).
T2 construct: A phosphate buffer solution of liver microsomes was prepared; from tissue; host or cells: human liver microsomes
As to the kind of experiment: P450 enzyme inhibition, CYP2C9. Conditions: human liver microsome, substrate Diclofenac sodium. In kind it is in vitro ADME. The method, then: as §1
Background: Liver microsomes are vesicles of endoplasmic reticulum, rich in cytochrome P450 enzymes.

The target in a further data set is T3, CYP2C19 (Homo sapiens, UniProt P33261).
T3 construct: A phosphate buffer solution of liver microsomes was prepared; from tissue; host or cells: human liver microsomes
As to the kind of experiment: P450 enzyme inhibition, CYP2C19. To be noted: human liver microsome, substrate Mephenytoin. In kind it is in vitro ADME. As to the method: as §1

A further data set addresses T4, CYP2D6 (Homo sapiens, UniProt P10635).
T4 construct: A phosphate buffer solution of liver microsomes was prepared; from tissue; host or cells: human liver microsomes
As to the kind of experiment: P450 enzyme inhibition, CYP2D6. Conditions: human liver microsome, substrate Dextromethorphan. In kind it is in vitro ADME. The method, then:
as §1

For a further data set, the target named is T5, CYP3A4 (Homo sapiens, UniProt P08684).
T5 construct: A phosphate buffer solution of liver microsomes was prepared; from tissue; host or cells: human liver microsomes
As to the kind of experiment: P450 enzyme inhibition, CYP3A4. In kind it is in vitro ADME. Conditions: human liver microsome, substrate Testosterone. The method, then:
as §1

Data set [3] is described as follows: Pharmacokinetic evaluation in mice. In kind it is in vivo. The method, then: The test compounds were dissolved in vehicles to prepare clear solutions or homogeneous suspensions. […] Blood samples were collected at 0.083 h, 0.25 h, 0.5 h, 1 h, 2 h, 4 h, 8 h, and 24 h after the intravenous administration, and at 0.25 h, 0.5 h, 1 h, 2 h, 4 h, 6 h, 8 h, and 24 h after the oral administration. Plasma samples were centrifuged, and the supernatant was collected to prepare samples, which were then quantitatively analyzed by LC/MS/MS.

T2 sequence (P11712 whole entry): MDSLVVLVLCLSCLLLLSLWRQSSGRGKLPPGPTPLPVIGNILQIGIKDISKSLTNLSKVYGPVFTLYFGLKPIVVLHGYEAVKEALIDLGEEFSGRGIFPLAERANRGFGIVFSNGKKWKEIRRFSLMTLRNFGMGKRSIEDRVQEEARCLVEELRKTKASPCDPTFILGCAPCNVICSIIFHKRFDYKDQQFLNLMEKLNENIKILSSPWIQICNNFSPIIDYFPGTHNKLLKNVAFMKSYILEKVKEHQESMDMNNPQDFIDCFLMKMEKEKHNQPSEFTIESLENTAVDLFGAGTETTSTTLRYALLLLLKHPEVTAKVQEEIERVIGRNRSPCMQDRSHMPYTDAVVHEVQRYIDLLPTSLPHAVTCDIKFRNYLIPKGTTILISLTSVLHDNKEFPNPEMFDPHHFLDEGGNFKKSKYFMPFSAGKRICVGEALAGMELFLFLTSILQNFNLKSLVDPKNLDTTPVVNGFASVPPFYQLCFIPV
T3 sequence (P33261 whole entry): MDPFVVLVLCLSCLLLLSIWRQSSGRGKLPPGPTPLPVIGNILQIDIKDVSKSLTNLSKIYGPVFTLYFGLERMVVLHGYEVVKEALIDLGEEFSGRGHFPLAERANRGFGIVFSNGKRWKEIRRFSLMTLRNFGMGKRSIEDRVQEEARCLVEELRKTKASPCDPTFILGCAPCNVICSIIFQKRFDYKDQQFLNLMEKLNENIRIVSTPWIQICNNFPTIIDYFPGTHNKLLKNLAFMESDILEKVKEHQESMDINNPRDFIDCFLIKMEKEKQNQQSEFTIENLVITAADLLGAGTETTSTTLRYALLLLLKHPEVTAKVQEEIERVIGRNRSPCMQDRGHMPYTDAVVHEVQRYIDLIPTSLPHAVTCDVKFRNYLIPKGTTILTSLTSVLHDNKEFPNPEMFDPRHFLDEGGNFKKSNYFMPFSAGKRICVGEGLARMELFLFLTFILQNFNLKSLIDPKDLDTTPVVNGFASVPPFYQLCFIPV
T5 sequence (P08684 whole entry): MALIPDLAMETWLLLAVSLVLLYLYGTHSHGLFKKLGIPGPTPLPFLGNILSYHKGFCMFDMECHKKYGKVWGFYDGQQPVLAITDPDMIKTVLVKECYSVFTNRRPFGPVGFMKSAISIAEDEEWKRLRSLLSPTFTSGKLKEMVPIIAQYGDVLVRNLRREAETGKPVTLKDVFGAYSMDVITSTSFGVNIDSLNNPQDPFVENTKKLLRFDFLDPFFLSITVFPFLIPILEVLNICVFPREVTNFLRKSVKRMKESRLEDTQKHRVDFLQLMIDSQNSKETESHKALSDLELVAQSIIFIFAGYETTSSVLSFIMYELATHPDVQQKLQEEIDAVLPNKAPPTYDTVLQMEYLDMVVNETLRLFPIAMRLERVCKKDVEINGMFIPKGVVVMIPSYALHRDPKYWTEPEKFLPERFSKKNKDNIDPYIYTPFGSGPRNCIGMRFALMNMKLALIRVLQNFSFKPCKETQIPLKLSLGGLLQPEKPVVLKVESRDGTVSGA
T4 sequence (P10635 whole entry): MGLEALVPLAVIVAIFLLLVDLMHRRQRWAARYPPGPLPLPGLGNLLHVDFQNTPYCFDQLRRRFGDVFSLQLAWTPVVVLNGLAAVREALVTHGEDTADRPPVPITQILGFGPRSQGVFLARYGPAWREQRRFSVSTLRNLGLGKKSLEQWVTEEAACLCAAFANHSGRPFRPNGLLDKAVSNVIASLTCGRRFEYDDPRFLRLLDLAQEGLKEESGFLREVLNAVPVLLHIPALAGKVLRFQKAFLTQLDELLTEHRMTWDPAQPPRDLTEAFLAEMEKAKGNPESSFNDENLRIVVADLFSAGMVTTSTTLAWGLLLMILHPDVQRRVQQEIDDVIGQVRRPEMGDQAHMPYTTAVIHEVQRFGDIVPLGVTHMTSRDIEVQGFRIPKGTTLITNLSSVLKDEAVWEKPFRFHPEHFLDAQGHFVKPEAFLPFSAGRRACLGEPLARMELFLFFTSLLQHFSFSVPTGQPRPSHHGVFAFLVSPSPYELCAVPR

Consider `O=C(COc1ccc(Cl)c(F)c1)N[C@H]1CC[C@H](c2nnc(N3CC(OC(F)(F)F)C3)o2)CC1` [Compound 6], for which the solubility at 1.5 h in data set [1] (FaSSIF buffer (fasted-state simulated intestinal fluid), fassif, fasted-state simulated intestinal fluid (pH=6.5)) was above 10 µg/mL. Moreover, the solubility at 1.5 h in data set [1] (FeSSIF buffer (fed-state simulated intestinal fluid), fessif, fed-state simulated intestinal fluid (pH=5.0)) is above 80 µg/mL. For the same compound, in data set [2], the efflux ratio at 120 min, 10 µM worked out at 0.71. For the same compound, in data set [2] (37° C.), the Papp A→B at 120 min, 10 µM is 25.8 ×10⁻⁶ cm/s and the Papp B→A at 120 min, 10 µM amounted to 18.4 ×10⁻⁶ cm/s. At CYP1A2, this compound had an IC50 above 10 µM. This compound displayed a half-inhibitory concentration (IC50) at CYP2C9 above 10 µM. The IC50 against CYP2C19 was above 10 µM. Moreover, the IC50 at CYP2D6 is above 30 µM. The same compound yielded an IC50 at CYP3A4 above 30 µM. For the same compound, in data set [3] (Cl, T1/2, Cmax, AUC, F), the “pharmacokinetic properties in mice” value was “excellent pharmacokinetic properties in mice”. In data set [3] (plasma, mouse IV (1 mg/kg)), this compound had an AUC(0-inf) of 11.4 µg·h/mL, a C0 of 1240 ng/mL, a clearance of 1.46 mL/min/kg and a half-life of 6.35 h. Also, the Vd in data set [3] (plasma, mouse IV (1 mg/kg), read-out: Vss) is 0.707 L/kg. In addition, in data set [3] (plasma, mouse PO (30 mg/kg)), the AUC(0-inf) came out at 516 µg·h/mL, the highest level (Cmax) was 48000 ng/mL, the time to peak (Tmax) was 3.33 h and the half-life was 3.11 h. Also, the bioavailability in data set [3] (plasma, mouse PO (30 mg/kg) vs IV (1 mg/kg)) worked out at 161%.
